# From patent US20250127821A1, “PHARMACEUTICAL COMPOSITION AND COSMETIC COMPOSITION” (I Peace, Inc., priority 2023, published 2025)
# Columns and labels:
# Assay type in all cases: cell-based
# [1] = test system: human chondrocyte cell line (SW1353); experiment: Hyaluronic acid production test (ELISA); settings: positive control 10 mmol/L
# Description: Using proliferation medium (DMEM/F-12 supplemented with 10% FBS and 1% penicillin-streptomycin mixture), a human chondrocyte cell line (SW1353, ATCC, HTB-94) was seeded into a T-75 flask and cultured in a CO2 incubator until 60-80% confluency. The cells were then detached from the T-75 flask using 0.25% trypsin-EDTA and phenol red. Subsequently, using the proliferation medium, the human chondrocytes were seeded into a 96-well plate at a density of 10,000 cells/100 μL/well and cultured in a CO2 incubator.
# The following day, the medium was replaced with 100 μL of assay medium (DMEM/F-12 supplemented with 1% FBS and 1% penicillin-streptomycin mixture), containing each of test substances 1 through 7 at final concentrations of 5% and 20% or a positive control substance at a final concentration of 10 mmol/L, or assay medium without test substances or positive control. The human chondrocytes were cultured in a CO2 incubator for 24 or 72 hours.
# The culture supernatant was collected, and the amount of hyaluronic acid was measured using an ELISA kit (Hyaluronan Quantikine ELISA Kit, R&D Systems) and a multi-spectral microplate reader (Varioskan Flash, Thermo Fisher Scientific).
# [2] = test system: adipocytes differentiated from normal human subcutaneous preadipocytes; experiment: Fat-decomposing assay (free glycerol in culture supernatant); settings: positive control 10 μM, 24 hours
# Description: Normal human subcutaneous preadipocytes (Lonza, PT-5020) were seeded into a T-75 flask using a proliferation medium (PGM-2, 10% FBS, 2 mM L-glutamine, 50 μg/mL gentamicin, and 37 ng/mL amphotericin B-supplemented PBM, Lonza, PT-8002) and cultured in a CO2 incubator (37° C., 5% CO2, humidified) until they reached 60% to 80% confluence. The cells were then detached using 0.25% trypsin-EDTA and centrifuged. Subsequently, the cells were seeded into a 96-well plate at 10,000 cells/100 μL/well in proliferation medium and incubated in a CO2 incubator. The following day, the medium was replaced with 100 μL of differentiation medium (PGM-2 supplemented with insulin, dexamethasone, indomethacin, and isobutyl-methylxanthine; Lonza, PT-8002), and the cells were cultured for seven days to induce differentiation of preadipocytes into adipocytes. […] Thereafter, the culture supernatant was collected, and the amount of free glycerol in the supernatant was measured using a fat-decomposing assay kit (Cayman, 10009381). […] Specifically, a multi-spectral microplate reader (Varioskan Flash, Thermo Fisher Scientific) was used to measure the absorbance of the supernatant at a wavelength of 540 nm, and the relative concentration of free glycerol was calculated. […]
# [3] = test system: normal human umbilical vein endothelial cells; experiment: Prostacyclin production test (6-keto prostaglandin Fla ELISA); settings: positive control 10 μM, 24 hours
# Description: Normal human umbilical vein endothelial cells (Lonza, CC2519AS) were seeded into a T-75 flask using medium (EGM-2, Lonza, CC-3162) and cultured in a CO2 incubator until 60% to 80% confluence. The cells were then detached from the T-75 flask using 0.05% trypsin-EDTA and phenol red. The detached cells were seeded into a 96-well plate at 10,000 cells/100 μL/well in medium and cultured in a CO2 incubator. The next day, the medium was replaced with 100 μL of medium containing test substances 1 through 7 at final concentrations of 5% and 20%, and the positive control substance at a final concentration of 10 μM, or medium without test or positive control substances. The cells were then cultured for 24 hours in a CO2 incubator. The culture supernatant was collected, and the amount of 6-keto prostaglandin Fla, a metabolite of prostacyclin, was measured using an ELISA kit (Abcam, ab133023) and a multi-spectral microplate reader (Varioskan Flash, Thermo Fisher Scientific).
# [4] = test system: normal human skeletal muscle myoblasts; experiment: Myotube differentiation promotion test (anti-MHC staining, differentiation index); settings: positive control 50 nmol/L, 3 days
# Description: Using proliferation medium (SkGM-2, Lonza, CC-3245), normal human skeletal muscle myoblasts (Lonza, CC-2580) were seeded into a T-75 flask and cultured in a CO2 incubator until approximately 60% confluence. The cells were then detached from the T-75 flask using 0.05% trypsin-EDTA and phenol red. The detached cells were seeded into a 96-well plate at 7,500 cells/100 μL/well in proliferation medium and cultured in a CO2 incubator.
# The next day, the medium was replaced with 100 μL of differentiation medium (2% horse serum-supplemented DMEM: F12) containing test substances 1 through 7 at final concentrations of 5% and 20% and the positive control substance at a final concentration of 50 nmol/L, or differentiation medium without test or positive control substances. The cells were then cultured for 3 days in a CO2 incubator to induce differentiation of myoblasts into myotubes.
# Subsequently, the medium was removed from the wells, and 100 μL of 4% paraformaldehyde at 4° C. was added to each well, followed by incubation at 4° C. for 15 minutes to fix the cells. […]
# From the captured images, the number of cell nuclei and the number of nuclei positive for myosin heavy chain were measured, and the differentiation index I (%) was calculated according to formula (1) below. […]
compound,measurement,setting,value
CC(=O)N[C@H]1C(O)O[C@H](CO)[C@@H](O)[C@@H]1O (some centres unmarked) [N-acetylglucosamine],hyaluronic acid production compared to the control,[1]; cultured 24 hours,significantly higher
same,hyaluronic acid production compared to the control,[1]; cultured 72 hours,significantly higher
CC(C)NCC(O)c1ccc(O)c(O)c1 (centres unmarked) [isoproterenol],amount of fat-decomposition (free glycerol) compared to the control,[2],significantly higher
CCCCC/C=C\C/C=C\C/C=C\C/C=C\CCCC(=O)O [arachidonic acid],levels of 6-keto prostaglandin Fla compared to the control,[3],significantly higher
insulin,differentiation index to myotubes compared to the control,[4],significantly higher
